# According to US20220187282A1, “CARDIOMYOCYTE PROLIFERATION” (The Council of the Queensland Institute of Medical Research, priority 2019, published 2022):
# Where two headings read alike, the source gives them in different places.
# Legend:
# Assay type in all cases: biochemical
# kinases [1] = biological target: kinases (Homo sapiens, UniProt P37023); conditions: ACVRL1 (ALK1) FRET-Lantha SP; Test Conc(μM) 1
# kinases [2] = biological target: kinases (Homo sapiens, UniProt P45985); conditions: MAP2K4 (MEK4) FRET-Lantha SP; Test Conc(μM) 1
# kinases [3] = biological target: kinases (Homo sapiens, UniProt P07949); conditions: RET Hu Phos FRET-Z-Lyte SP; Test Conc(μM):ATP Conc(μM) 1:10
# kinases [4] = biological target: kinases (Homo sapiens, UniProt Q8TCG2); conditions: PI4K2B *Mn* FRET-Adapta SP; Test Conc(μM):ATP Conc(μM) 1:10
# Chain of kinases (Homo sapiens, UniProt Q8TCG2) (Q8TCG2 whole entry): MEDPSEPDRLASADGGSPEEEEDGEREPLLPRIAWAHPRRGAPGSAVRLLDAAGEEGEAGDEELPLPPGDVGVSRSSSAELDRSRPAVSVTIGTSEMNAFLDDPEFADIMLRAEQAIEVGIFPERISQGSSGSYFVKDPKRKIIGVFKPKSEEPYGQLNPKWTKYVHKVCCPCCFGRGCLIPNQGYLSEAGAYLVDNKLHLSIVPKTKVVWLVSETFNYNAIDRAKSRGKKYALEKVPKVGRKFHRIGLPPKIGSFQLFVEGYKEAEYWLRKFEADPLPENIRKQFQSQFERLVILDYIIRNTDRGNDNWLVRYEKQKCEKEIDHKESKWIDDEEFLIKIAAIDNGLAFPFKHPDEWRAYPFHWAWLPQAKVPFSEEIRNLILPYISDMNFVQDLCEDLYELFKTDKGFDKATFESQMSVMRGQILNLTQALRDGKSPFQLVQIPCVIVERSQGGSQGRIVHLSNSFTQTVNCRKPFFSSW
# kinases [5] = biological target: kinases (Homo sapiens, UniProt P42685); conditions: FRK (PTK5) FRET-Z-Lyte SP; Test Conc(μM):ATP Conc(μM) 1:50
# kinases [6] = biological target: kinases (Homo sapiens, UniProt O00750); conditions: PIK3C2B FRET-Adapta SP; Test Conc(μM):ATP Conc(μM) 1:10
# kinases [7] = biological target: kinases (Homo sapiens, UniProt Q9UL54); conditions: TAOK2 (TAO1) FRET-Z-Lyte SP
# kinases [8] = biological target: kinases (Homo sapiens, UniProt O15075); conditions: DCAMKL1 (DCLK1) FRET-Z-Lyte SP
# Chain of kinases (Homo sapiens, UniProt O15075) (O15075 whole entry): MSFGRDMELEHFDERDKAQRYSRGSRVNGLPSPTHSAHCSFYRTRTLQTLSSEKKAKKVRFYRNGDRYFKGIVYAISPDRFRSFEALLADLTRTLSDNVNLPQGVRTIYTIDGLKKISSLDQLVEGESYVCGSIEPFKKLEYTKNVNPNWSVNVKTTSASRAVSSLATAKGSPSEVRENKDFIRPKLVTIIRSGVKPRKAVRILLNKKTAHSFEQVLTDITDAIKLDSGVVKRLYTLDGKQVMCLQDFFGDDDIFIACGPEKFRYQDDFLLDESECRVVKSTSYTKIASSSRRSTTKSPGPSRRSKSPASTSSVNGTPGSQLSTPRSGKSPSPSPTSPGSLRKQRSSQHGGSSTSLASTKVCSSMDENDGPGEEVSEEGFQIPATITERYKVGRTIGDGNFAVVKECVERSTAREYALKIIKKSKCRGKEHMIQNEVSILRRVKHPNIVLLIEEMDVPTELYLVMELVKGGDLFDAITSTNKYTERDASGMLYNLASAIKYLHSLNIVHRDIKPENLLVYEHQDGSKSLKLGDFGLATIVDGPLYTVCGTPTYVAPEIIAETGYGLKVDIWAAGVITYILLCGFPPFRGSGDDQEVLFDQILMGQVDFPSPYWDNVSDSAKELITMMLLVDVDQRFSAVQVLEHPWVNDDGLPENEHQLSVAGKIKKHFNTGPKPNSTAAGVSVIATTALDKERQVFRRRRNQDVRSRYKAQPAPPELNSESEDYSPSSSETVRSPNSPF
# kinases [9] = biological target: kinases (Homo sapiens, UniProt Q15375); conditions: EPHA7 FRET-Lantha SP; Test Conc(μM) 1
# kinases [10] = biological target: kinases (Homo sapiens, UniProt Q9UQB9); conditions: AURKC (Aurora C) Z-Lyte SP; Test Conc(μM):ATP Conc(μM) 1:25
# kinases [11] = biological target: kinases (Homo sapiens, UniProt P27037); conditions: ACVR2A FRET-Lantha SP; Test Conc(μM) 1
# kinases [12] = biological target: kinases (Homo sapiens, UniProt Q8NEV4); conditions: MYO3A (MYO3 alpha) Lantha SP; Test Conc(μM) 1
# kinases [13] = biological target: kinases (Homo sapiens, UniProt Q8WXR4); conditions: MYO3B FRET-Lantha SP; Test Conc(μM) 1
# kinases [14] = biological target: kinases (Homo sapiens, UniProt P54756); conditions: EPHA5 FRET-Z-Lyte SP; Test Conc(μM):ATP Conc(μM) 1:150
# kinases [15] = biological target: kinases (Homo sapiens, UniProt Q9UK32); conditions: RPS6KA6 (RSK4) FRET-Z-Lyte SP; Test Conc(μM):ATP Conc(μM) 1:25
# kinases [16] = biological target: kinases (Homo sapiens, UniProt P06239); conditions: LCK FRET-Z-Lyte SP; Test Conc(μM):ATP Conc(μM) 1:50
# kinases [17] = biological target: kinases (Homo sapiens, UniProt Q12851); conditions: MAP4K2 (GCK) FRET-Z-Lyte SP; Test Conc(μM):ATP Conc(μM) 1:100
# kinases [18] = biological target: kinases (Homo sapiens, UniProt Q14680); conditions: MELK FRET-Z-Lyte SP; Test Conc(μM):ATP Conc(μM) 1:25
# kinases [19] = biological target: kinases (Homo sapiens, UniProt Q9BYT3); conditions: STK33 FRET-Lantha SP; Test Conc(μM) 1
# Chain of kinases (Homo sapiens, UniProt Q9BYT3) (Q9BYT3 whole entry): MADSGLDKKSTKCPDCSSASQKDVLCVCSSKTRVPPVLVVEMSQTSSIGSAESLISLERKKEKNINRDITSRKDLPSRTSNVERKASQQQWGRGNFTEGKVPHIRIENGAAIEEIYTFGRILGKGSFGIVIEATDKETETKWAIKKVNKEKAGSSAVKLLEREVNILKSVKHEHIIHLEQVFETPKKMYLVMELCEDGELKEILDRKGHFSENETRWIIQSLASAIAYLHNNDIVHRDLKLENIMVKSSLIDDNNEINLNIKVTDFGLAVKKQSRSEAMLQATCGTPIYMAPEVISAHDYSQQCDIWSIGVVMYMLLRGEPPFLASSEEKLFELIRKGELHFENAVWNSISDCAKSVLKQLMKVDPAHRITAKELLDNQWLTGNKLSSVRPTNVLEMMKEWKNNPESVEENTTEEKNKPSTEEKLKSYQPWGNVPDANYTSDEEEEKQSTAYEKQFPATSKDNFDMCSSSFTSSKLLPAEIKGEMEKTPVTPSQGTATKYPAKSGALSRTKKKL
# kinases [20] = biological target: kinases (Homo sapiens, UniProt Q76MJ5); conditions: ERN2 FRET-Lantha SP; Test Conc(μM) 1
# kinases [21] = biological target: kinases (Homo sapiens, UniProt P27361); conditions: MAPK3 (ERK1) FRET-Z-Lyte SP; Test Conc(μM):ATP Conc(μM) 1:50
# kinases [22] = biological target: kinases (Homo sapiens, UniProt P57059); conditions: SIK1 FRET-Lantha SP; Test Conc(μM) 1
# kinases [23] = biological target: kinases (Homo sapiens, UniProt P43405); conditions: SYK FRET-Z-Lyte SP; Test Conc(μM):ATP Conc(μM) 1:25
# kinases [24] = biological target: kinases (Homo sapiens, UniProt Q5S007)
# Chain of kinases (Homo sapiens, UniProt Q5S007) (Q5S007 whole entry): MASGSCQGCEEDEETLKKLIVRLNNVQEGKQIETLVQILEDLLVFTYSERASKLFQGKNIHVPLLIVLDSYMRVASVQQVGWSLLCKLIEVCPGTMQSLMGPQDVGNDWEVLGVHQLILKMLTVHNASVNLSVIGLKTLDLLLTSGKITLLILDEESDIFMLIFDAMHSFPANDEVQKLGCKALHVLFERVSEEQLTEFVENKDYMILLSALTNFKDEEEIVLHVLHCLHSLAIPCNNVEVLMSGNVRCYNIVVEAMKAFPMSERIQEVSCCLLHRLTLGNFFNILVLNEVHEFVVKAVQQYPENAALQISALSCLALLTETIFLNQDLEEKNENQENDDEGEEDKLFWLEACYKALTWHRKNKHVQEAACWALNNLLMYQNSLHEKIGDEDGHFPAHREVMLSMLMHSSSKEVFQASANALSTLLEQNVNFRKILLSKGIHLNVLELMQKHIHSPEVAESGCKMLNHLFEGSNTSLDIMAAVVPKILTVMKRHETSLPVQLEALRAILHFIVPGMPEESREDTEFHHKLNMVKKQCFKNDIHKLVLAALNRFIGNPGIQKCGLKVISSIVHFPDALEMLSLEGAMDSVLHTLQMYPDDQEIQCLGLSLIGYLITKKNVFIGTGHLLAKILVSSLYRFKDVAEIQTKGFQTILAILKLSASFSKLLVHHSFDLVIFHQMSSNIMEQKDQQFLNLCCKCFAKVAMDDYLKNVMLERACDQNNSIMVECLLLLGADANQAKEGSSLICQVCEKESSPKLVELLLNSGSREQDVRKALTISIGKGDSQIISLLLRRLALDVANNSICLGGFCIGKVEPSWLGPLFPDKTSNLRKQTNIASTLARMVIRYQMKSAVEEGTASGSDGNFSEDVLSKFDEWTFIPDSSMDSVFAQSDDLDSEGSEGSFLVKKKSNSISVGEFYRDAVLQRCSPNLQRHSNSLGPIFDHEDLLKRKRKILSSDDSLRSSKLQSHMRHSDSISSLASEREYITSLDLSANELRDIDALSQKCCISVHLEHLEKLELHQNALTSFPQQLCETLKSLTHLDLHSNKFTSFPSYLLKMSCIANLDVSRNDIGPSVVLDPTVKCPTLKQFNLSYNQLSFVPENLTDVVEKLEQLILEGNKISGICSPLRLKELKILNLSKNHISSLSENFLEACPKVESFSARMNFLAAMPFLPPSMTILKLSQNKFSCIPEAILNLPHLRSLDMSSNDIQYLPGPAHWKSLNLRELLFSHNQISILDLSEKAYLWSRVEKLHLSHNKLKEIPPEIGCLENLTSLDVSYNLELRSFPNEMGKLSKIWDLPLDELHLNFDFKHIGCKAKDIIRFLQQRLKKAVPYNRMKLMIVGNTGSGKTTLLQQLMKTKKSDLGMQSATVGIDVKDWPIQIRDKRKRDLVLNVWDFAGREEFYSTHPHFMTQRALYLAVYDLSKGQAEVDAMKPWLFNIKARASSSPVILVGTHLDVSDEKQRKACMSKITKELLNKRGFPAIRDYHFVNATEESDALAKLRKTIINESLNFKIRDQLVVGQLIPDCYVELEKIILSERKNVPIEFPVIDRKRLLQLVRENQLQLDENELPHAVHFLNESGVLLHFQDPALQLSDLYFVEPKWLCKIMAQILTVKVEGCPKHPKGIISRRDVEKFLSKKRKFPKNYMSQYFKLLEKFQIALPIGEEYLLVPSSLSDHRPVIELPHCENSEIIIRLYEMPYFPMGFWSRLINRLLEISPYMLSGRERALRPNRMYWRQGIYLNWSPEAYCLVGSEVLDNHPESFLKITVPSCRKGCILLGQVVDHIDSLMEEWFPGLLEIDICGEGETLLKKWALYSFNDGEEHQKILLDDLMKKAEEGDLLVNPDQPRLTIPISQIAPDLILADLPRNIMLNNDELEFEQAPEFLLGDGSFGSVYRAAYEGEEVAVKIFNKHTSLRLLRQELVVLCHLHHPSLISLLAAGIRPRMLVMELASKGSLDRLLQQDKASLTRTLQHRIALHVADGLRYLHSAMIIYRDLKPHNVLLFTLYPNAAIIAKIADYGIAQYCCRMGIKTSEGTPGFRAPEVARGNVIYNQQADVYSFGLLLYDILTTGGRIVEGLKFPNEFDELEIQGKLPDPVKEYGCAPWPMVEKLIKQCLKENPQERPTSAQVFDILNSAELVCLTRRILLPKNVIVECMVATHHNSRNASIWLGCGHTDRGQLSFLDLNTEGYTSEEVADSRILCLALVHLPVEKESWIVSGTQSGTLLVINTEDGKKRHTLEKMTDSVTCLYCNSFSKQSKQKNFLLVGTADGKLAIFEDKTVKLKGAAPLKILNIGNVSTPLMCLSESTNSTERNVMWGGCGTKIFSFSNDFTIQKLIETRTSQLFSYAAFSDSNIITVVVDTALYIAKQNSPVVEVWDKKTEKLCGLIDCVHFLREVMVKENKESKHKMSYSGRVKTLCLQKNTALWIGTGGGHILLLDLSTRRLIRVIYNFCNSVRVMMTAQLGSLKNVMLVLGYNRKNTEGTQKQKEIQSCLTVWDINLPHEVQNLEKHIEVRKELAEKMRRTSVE
# kinases [25] = biological target: kinases (Homo sapiens, UniProt Q9NYA1); conditions: SPHK1 FRET-Adapta SP; Test Conc(μM):ATP Conc(μM) 1:10
# Chain of kinases (Homo sapiens, UniProt Q9NYA1) (Q9NYA1 whole entry): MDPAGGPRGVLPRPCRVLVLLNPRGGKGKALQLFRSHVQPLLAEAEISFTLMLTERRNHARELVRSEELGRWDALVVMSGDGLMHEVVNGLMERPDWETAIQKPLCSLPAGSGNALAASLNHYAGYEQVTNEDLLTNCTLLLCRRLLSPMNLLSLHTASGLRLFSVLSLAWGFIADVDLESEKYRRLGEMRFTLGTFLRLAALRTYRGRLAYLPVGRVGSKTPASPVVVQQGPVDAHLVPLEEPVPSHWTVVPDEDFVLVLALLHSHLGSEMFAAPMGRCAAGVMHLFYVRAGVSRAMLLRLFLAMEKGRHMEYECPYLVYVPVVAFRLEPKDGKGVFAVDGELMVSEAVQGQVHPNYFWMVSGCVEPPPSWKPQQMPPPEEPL
# kinases [26] = biological target: kinases (Homo sapiens, UniProt O00141); conditions: SGK (SGK1) FRET-Z-Lyte SP; Test Conc(μM):ATP Conc(μM) 1:25
# kinases [27] = biological target: kinases (Homo sapiens, UniProt Q8N4C8); conditions: MINK1 FRET-Z-Lyte SP; Test Conc(μM):ATP Conc(μM) 1:25
# kinases [28] = biological target: kinases (Homo sapiens, UniProt P36507)
# Chain of kinases (Homo sapiens, UniProt P36507) (P36507 whole entry): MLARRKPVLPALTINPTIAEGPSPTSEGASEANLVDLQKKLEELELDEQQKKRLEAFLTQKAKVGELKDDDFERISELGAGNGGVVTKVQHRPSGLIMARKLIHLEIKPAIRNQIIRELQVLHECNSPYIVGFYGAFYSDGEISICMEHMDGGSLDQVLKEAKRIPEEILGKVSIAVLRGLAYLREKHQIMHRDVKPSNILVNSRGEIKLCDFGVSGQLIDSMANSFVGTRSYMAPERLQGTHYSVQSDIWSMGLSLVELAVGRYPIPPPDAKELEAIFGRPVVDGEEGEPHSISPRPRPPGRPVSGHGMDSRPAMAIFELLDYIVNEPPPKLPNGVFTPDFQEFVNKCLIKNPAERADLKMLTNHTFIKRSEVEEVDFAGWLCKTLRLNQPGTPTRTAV
# [29] = Test Conc(μM):ATP Conc(μM) 1:300
# [30] = LRRK2 FL FRET-Adapta SP, Test Conc(μM):ATP Conc(μM) 1:50
# [31] = LRRK2 Hu Phos FRET-Adapta SP, Test Conc(μM):ATP Conc(μM) 1:75
# [32] = MAP2K2 (MEK2) FRET-Lantha SP, Test Conc(μM) 1
# [33] = MAP2K2 (MEK2)Cascade Z-Lyte SP, Test Conc(μM):ATP Conc(μM) 1:100
# [34] = Test Conc(μM):ATP Conc(μM) 0.25
smiles,measurement,setting,value
Cc1ccc(NC(=O)c2ccnc(N3CCOCC3)c2)cc1Nc1ccnc(N2CC(C)OC(C)C2)n1 (stereo not drawn) [compound 3],Mean Inhib (%),kinases [1],7.2%
same,Mean Inhib (%),kinases [2],−9.5%
same,Mean Inhib (%),kinases [3],22.8%
same,Mean Inhib (%),kinases [4],−15.8%
same,Mean Inhib (%),kinases [5],5.7%
same,Mean Inhib (%),kinases [6],3.7%
same,Mean Inhib (%),kinases [7]; [29],−3.6%
same,Mean Inhib (%),kinases [8]; [29],31.0%
same,Mean Inhib (%),kinases [9],6.5%
same,Mean Inhib (%),kinases [10],9.3%
same,Mean Inhib (%),kinases [11],3.8%
same,Mean Inhib (%),kinases [12],10.8%
same,Mean Inhib (%),kinases [13],3.9%
same,Mean Inhib (%),kinases [14],6.7%
same,Mean Inhib (%),kinases [15],−9.0%
same,Mean Inhib (%),kinases [16],−4.1%
same,Mean Inhib (%),kinases [17],13.1%
same,Mean Inhib (%),kinases [18],3.6%
same,Mean Inhib (%),kinases [19],1.7%
same,Mean Inhib (%),kinases [20],−3.5%
same,Mean Inhib (%),kinases [21],5.1%
same,Mean Inhib (%),kinases [22],−0.5%
same,Mean Inhib (%),kinases [23],−3.9%
same,Mean Inhib (%),kinases [24]; [30],0.5%
same,Mean Inhib (%),kinases [24]; [31],13.2%
same,Mean Inhib (%),kinases [25],8.0%
same,Mean Inhib (%),kinases [26],−7.0%
same,Mean Inhib (%),kinases [27],1.6%
same,Mean Inhib (%),kinases [28]; [32],1.7%
same,Mean Inhib (%),kinases [28]; [33],−1.0%
Cc1cc(Oc2ccnc(Nc3ccc(S(N)(=O)=O)cc3)c2)c(-c2ccccn2)nc1C [compound 65],Mean Inhib (%),kinases [1],77.2%
same,Mean Inhib (%),kinases [2],14.1%
same,Mean Inhib (%),kinases [3],31.0%
same,Mean Inhib (%),kinases [4],1.8%
same,Mean Inhib (%),kinases [5],60.1%
same,Mean Inhib (%),kinases [6],−0.9%
same,Mean Inhib (%),kinases [7]; [34],13.7%
same,Mean Inhib (%),kinases [8]; [34],11.8%
same,Mean Inhib (%),kinases [9],10.4%
same,Mean Inhib (%),kinases [10],4.2%
same,Mean Inhib (%),kinases [11],71.5%
same,Mean Inhib (%),kinases [12],1.6%
same,Mean Inhib (%),kinases [13],4.1%
same,Mean Inhib (%),kinases [14],65.2%
same,Mean Inhib (%),kinases [15],−0.7%
same,Mean Inhib (%),kinases [16],39.7%
same,Mean Inhib (%),kinases [17],18.4%
same,Mean Inhib (%),kinases [18],6.0%
same,Mean Inhib (%),kinases [19],−6.6%
same,Mean Inhib (%),kinases [20],7.1%
same,Mean Inhib (%),kinases [21],1.1%
same,Mean Inhib (%),kinases [22],1.8%
same,Mean Inhib (%),kinases [23],2.5%
same,Mean Inhib (%),kinases [24]; [30],3.0%
same,Mean Inhib (%),kinases [24]; [31],6.1%
same,Mean Inhib (%),kinases [25],−0.7%
same,Mean Inhib (%),kinases [26],−1.4%
same,Mean Inhib (%),kinases [27],19.9%
same,Mean Inhib (%),kinases [28]; [32],−0.2%
same,Mean Inhib (%),kinases [28]; [33],10.4%
